Publication PMC11240139, “Exploring the antitumor potential of novel quinoline derivatives via tubulin polymerization inhibition in breast cancer; design, synthesis and molecular docking” (RSC Advances, 2024)

Assays:
KM12 (colon cancer) = assay: NCI-60 SRB cytotoxicity screen; assay type: cell-based; settings: Homo sapiens; KM12, single dose 10 μM; read-out: growth inhibition (GI%)
[1] = test system: MDA-MB-468 (breast cancer); assay: NCI-60 SRB cytotoxicity screen; assay type: cell-based; settings: Homo sapiens; MDA-MB-468, single dose 10 μM; read-out: growth inhibition (GI%)
Method: The cytotoxic activity of the synthesized quinoline derivatives was determined by the national cancer institute (NCI, Bethesda, Maryland, USA) against 60 different cancer cell lines at a single high dose (10^−5 M) in the full NCI 60 cell panel using the sulforhodamine B assay for cell viability evaluation. In summary, 5 × 10^3 cells were in 96-well plate and incubated in complete media for 24 h. Cells were treated with 100 μL of media containing each newly synthesized compound. After drug exposure, cells were fixed by replacing media with 150 μL of 10% TCA and incubated at 4 °C for 1 h. The TCA solution was removed, and the cells were washed 5 times with distilled water. Aliquots of 70 μL SRB solution (0.4% w/v) were added and incubated in a dark place at room temperature for 10 min. The plates were washed 3 times with 1% acetic acid and allowed to air-dry overnight. Then, 150 μL of TRIS (10 mM) was added to dissolve protein-bound SRB stain. The absorbance was measured at 540 nm.% Cytotoxicity = [1 − (AVx/AVNC)] × 100where AVx denotes the average absorbance of the sample well and AVNC denotes the average absorbance of the negative control.
The methodology of the NCI anticancer screening has been described in details at (http://www.dtp.nci.nih.gov). The anticancer assay was performed in full NCI 60 cell lines derived from nine tumor subpanels, including leukemia, lung, colon, CNS, melanoma, ovarian, renal, prostate, and breast cancer cell lines.
The cell lines were first cultured for 48 h, after being exposed to a single dosage of the compound. Using the protein-binding dye sulforhodamine B dye, cell proliferation and viability were evaluated (SRB assay). The results were presented for each chemical as GI%. Compound that met NCI criteria for substantial activity were further evaluated using a five-dose experiment. The NCI60 cell lines were treated with the chemicals in this assay at five different concentration levels (0.01, 0.1, 1, 10, and 100 μM).

HL-60(TB) (leukemia) = assay: NCI-60 SRB cytotoxicity screen; assay type: cell-based; settings: Homo sapiens, single dose 10 μM, read-out: growth inhibition (GI%)
TK-10 (renal cancer) = assay: NCI-60 SRB cytotoxicity screen; assay type: cell-based; settings: Homo sapiens; TK-10, single dose 10 μM; read-out: growth inhibition (GI%)
[2] = test system: NCI-H460 (non-small cell lung cancer); assay: NCI-60 SRB cytotoxicity screen; assay type: cell-based; settings: Homo sapiens; NCI-H460, single dose 10 μM; read-out: growth inhibition (GI%)
CAKI-1 (renal cancer) = assay: NCI-60 SRB cytotoxicity screen; assay type: cell-based; settings: Homo sapiens; CAKI-1, single dose 10 μM; read-out: growth inhibition (GI%)
HCT-15 (colon cancer) = assay: NCI-60 SRB cytotoxicity screen; assay type: cell-based; settings: Homo sapiens; HCT-15, single dose 10 μM; read-out: growth inhibition (GI%)
UO-31 (renal cancer) = assay: NCI-60 SRB cytotoxicity screen; assay type: cell-based; settings: Homo sapiens; UO-31, single dose 10 μM; read-out: growth inhibition (GI%)
UACC-62 (melanoma) = assay: NCI-60 SRB cytotoxicity screen; assay type: cell-based; settings: Homo sapiens; UACC-62, single dose 10 μM; read-out: growth inhibition (GI%)
IGROV1 (ovarian cancer) = assay: NCI-60 SRB cytotoxicity screen; assay type: cell-based; settings: Homo sapiens, IGROV-1; IGROV1, single dose 10 μM; read-out: growth inhibition (GI%)
HCT-116 (colon cancer) = assay: NCI-60 SRB cytotoxicity screen; assay type: cell-based; settings: Homo sapiens; HCT-116, single dose 10 μM; read-out: growth inhibition (GI%)
T-47D (breast cancer) = assay: NCI-60 SRB cytotoxicity screen; assay type: cell-based; settings: Homo sapiens, T47D, single dose 10 μM, read-out: growth inhibition (GI%)
MCF7 (breast cancer) = assay: NCI-60 SRB cytotoxicity screen; assay type: cell-based; settings: Homo sapiens; MCF7, single dose 10 μM; read-out: growth inhibition (GI%)
UACC-257 (melanoma) = assay: NCI-60 SRB cytotoxicity screen; assay type: cell-based; settings: Homo sapiens; UACC-257, single dose 10 μM; read-out: growth inhibition (GI%)
[3] = test system: NCI-H322M (non-small cell lung cancer); assay: NCI-60 SRB cytotoxicity screen; assay type: cell-based; settings: Homo sapiens, single dose 10 μM, read-out: growth inhibition (GI%)
OVCAR-4 (ovarian cancer) = assay: NCI-60 SRB cytotoxicity screen; assay type: cell-based; settings: Homo sapiens; OVCAR-4, single dose 10 μM; read-out: growth inhibition (GI%)
PC-3 (prostate cancer) = assay: NCI-60 SRB cytotoxicity screen; assay type: cell-based; settings: PC-3, single dose 10 μM; read-out: growth inhibition (GI%)
A498 (renal cancer) = assay: NCI-60 SRB cytotoxicity screen; assay type: cell-based; settings: Homo sapiens; A498, single dose 10 μM; read-out: growth inhibition (GI%)
[4] = test system: EKVX (non-small cell lung cancer); assay: NCI-60 SRB cytotoxicity screen; assay type: cell-based; settings: Homo sapiens, single dose 10 μM, read-out: growth inhibition (GI%)
[5] = test system: NCI-H23 (non-small cell lung cancer); assay: NCI-60 SRB cytotoxicity screen; assay type: cell-based; settings: Homo sapiens; NCI-H23, single dose 10 μM; read-out: growth inhibition (GI%)
SK-OV-3 (ovarian cancer) = assay: NCI-60 SRB cytotoxicity screen; assay type: cell-based; settings: Homo sapiens; SK-OV-3, single dose 10 μM; read-out: growth inhibition (GI%)
SF-539 (CNS cancer) = assay: NCI-60 SRB cytotoxicity screen; assay type: cell-based; settings: Homo sapiens; SF-539, single dose 10 μM; read-out: growth inhibition (GI%)
SK-MEL-28 (melanoma) = assay: NCI-60 SRB cytotoxicity screen; assay type: cell-based; settings: Homo sapiens; SK-MEL-28, single dose 10 μM; read-out: growth inhibition (GI%)
DU-145 (prostate cancer) = assay: NCI-60 SRB cytotoxicity screen; assay type: cell-based; settings: Homo sapiens; DU-145, single dose 10 μM; read-out: growth inhibition (GI%)
HT29 (colon cancer) = assay: NCI-60 SRB cytotoxicity screen; assay type: cell-based; settings: Homo sapiens, HT-29; HT29, single dose 10 μM; read-out: growth inhibition (GI%)

SMILES | inhibition at 10 µM (KM12 (colon cancer)) [%] | inhibition at 10 µM (HL-60(TB) (leukemia)) [%] | inhibition at 10 µM (TK-10 (renal cancer)) [%] | inhibition at 10 µM [2] [%] | inhibition at 10 µM (CAKI-1 (renal cancer)) [%] | inhibition at 10 µM (HCT-15 (colon cancer)) [%] | inhibition at 10 µM (UO-31 (renal cancer)) [%] | inhibition at 10 µM (UACC-62 (melanoma)) [%] | inhibition at 10 µM (IGROV1 (ovarian cancer)) [%] | inhibition at 10 µM (HCT-116 (colon cancer)) [%] | inhibition at 10 µM (T-47D (breast cancer)) [%] | inhibition at 10 µM (MCF7 (breast cancer)) [%] | inhibition at 10 µM (UACC-257 (melanoma)) [%] | inhibition at 10 µM [3] [%] | inhibition at 10 µM (OVCAR-4 (ovarian cancer)) [%] | inhibition at 10 µM (PC-3 (prostate cancer)) [%] | inhibition at 10 µM (A498 (renal cancer)) [%] | inhibition at 10 µM [4] [%] | inhibition at 10 µM [5] [%] | inhibition at 10 µM (SK-OV-3 (ovarian cancer)) [%] | also measured
CCc1cccc2cc(-c3cc(-c4ccc(F)cc4)[nH]c(=O)c3C#N)c(Cl)nc12 [Compound 4d, 4-(2-Chloro-8-ethylquinolin-3-yl)-6-(4-fluorophenyl)-2-oxo-1,2-dihydropyridine-3-carbonitrile] | < 10 | < 10 | < 10 | < 10 | 19.5 | 11.1 | 27.9 | 16.5 | < 10 | < 10 | 14.4 | 24.6 | < 10 | < 10 | 11 | < 10 | < 10 | < 10 | 12 | < 10 | inhibition at 10 µM [1]: < 10%; melting point: 260 to 262 °C; inhibition at 10 µM (SF-539 (CNS cancer)): < 10%; inhibition at 10 µM (SK-MEL-28 (melanoma)): < 10%; inhibition at 10 µM (DU-145 (prostate cancer)): < 10%
CCc1cccc2cc(-c3cc(-c4ccc(Br)cc4)[nH]c(=O)c3C#N)c(Cl)nc12 [Compound 4e, 6-(4-Bromophenyl)-4-(2-chloro-8-ethylquinolin-3-yl)-2-oxo-1,2-dihydropyridine-3-carbonitrile] | < 10 | < 10 | < 10 | < 10 | 17.6 | < 10 | 17.8 | < 10 | < 10 | < 10 | < 10 | 20.6 | < 10 | < 10 | 10.8 | < 10 | < 10 | < 10 | < 10 | 11.7 | inhibition at 10 µM [1]: < 10%; inhibition at 10 µM (HT29 (colon cancer)): < 10%; inhibition at 10 µM (SF-539 (CNS cancer)): < 10%; inhibition at 10 µM (SK-MEL-28 (melanoma)): < 10%; inhibition at 10 µM (DU-145 (prostate cancer)): < 10%
CCc1cccc2cc(-c3cc(-c4ccc(Br)cc4)[nH]c(=S)c3C#N)c(Cl)nc12 [Compound 5e, 6-(4-Bromophenyl)-4-(2-chloro-8-ethylquinolin-3-yl)-2-thioxo-1,2-dihydropyridine-3-carbonitrile] | < 10 | < 10 | < 10 | < 10 | 20.1 | < 10 | 24.1 | < 10 | < 10 | < 10 | 10.4 | 19.7 | < 10 | < 10 | < 10 | < 10 | < 10 | < 10 | < 10 | 11.2 | inhibition at 10 µM [1]: < 10%; inhibition at 10 µM (HT29 (colon cancer)): < 10%; inhibition at 10 µM (SF-539 (CNS cancer)): < 10%; inhibition at 10 µM (SK-MEL-28 (melanoma)): < 10%; inhibition at 10 µM (DU-145 (prostate cancer)): < 10%
CCc1cccc2cc(C3C=C(c4ccc(OC)cc4)NC(=S)N3)c(Cl)nc12 (stereo not drawn) [Compound 6a, 4-(2-Chloro-8-ethylquinolin-3-yl)-6-(4-methoxyphenyl)-3,4-dihydropyrimidine-2(1H)-thione] | < 10 | < 10 | < 10 | < 10 | 16.2 | < 10 | 18.6 | 10.4 | < 10 | < 10 | < 10 | < 10 | < 10 | < 10 | < 10 | < 10 | < 10 | < 10 | < 10 | 14.9 | inhibition at 10 µM [1]: < 10%; inhibition at 10 µM (HT29 (colon cancer)): < 10%; inhibition at 10 µM (SF-539 (CNS cancer)): < 10%; inhibition at 10 µM (SK-MEL-28 (melanoma)): < 10%; inhibition at 10 µM (DU-145 (prostate cancer)): < 10%
CCc1cccc2cc(C3C=C(c4ccc(F)cc4)NC(=S)N3)c(Cl)nc12 (stereo not drawn) [Compound 6d, 4-(2-Chloro-8-ethylquinolin-3-yl)-6-(4-fluorophenyl)-3,4-dihydropyrimidine-2(1H)-thione] | 13.2 | < 10 | < 10 | < 10 | 26.1 | 26.2 | 49.5 | 14.2 | < 10 | 21.5 | 23.9 | 24.6 | < 10 | < 10 | 21 | 22 | < 10 | < 10 | 11.8 | < 10 | melting point: 220 to 222 °C; inhibition at 10 µM (HT29 (colon cancer)): 28.3%; inhibition at 10 µM (SF-539 (CNS cancer)): < 10%; inhibition at 10 µM (SK-MEL-28 (melanoma)): < 10%; inhibition at 10 µM (DU-145 (prostate cancer)): < 10%
CCc1cccc2cc(C3C=C(c4ccc(Br)cc4)NC(=S)N3)c(Cl)nc12 (stereo not drawn) [Compound 6e, 6-(4-Bromophenyl)-4-(2-chloro-8-ethylquinolin-3-yl)-3,4-dihydropyrimidine-2(1H)-thione] | < 10 | < 10 | < 10 | < 10 | 10.4 | < 10 | 32.7 | < 10 | < 10 | 10.5 | < 10 | 18.4 | < 10 | < 10 | 10.2 | < 10 | < 10 | < 10 | < 10 | 10.7 | inhibition at 10 µM [1]: < 10%; inhibition at 10 µM (HT29 (colon cancer)): 11.9%; inhibition at 10 µM (SF-539 (CNS cancer)): < 10%; inhibition at 10 µM (SK-MEL-28 (melanoma)): < 10%; inhibition at 10 µM (DU-145 (prostate cancer)): < 10%
